According to PMC7504387, “Antimicrobial and Amyloidogenic Activity of Peptides Synthesized on the Basis of the Ribosomal S1 Protein from Thermus Thermophilus” (International Journal of Molecular Sciences, 2020):
≈ marks a conversion by molar mass, not a printed value. Where a SMILES comes first, the peptide text is derived from it.

Experiments:
[1] = tested on: T. thermophilus cell culture; format: cell-based
Method: UV-Vis spectra were recorded using a spectrophotometr SF-102 (Akvilon, Moscow, Russia). At the end of the incubation, the density of the medium was estimated by spectrophotometry in a cuvette 10 mm with a total volume of 100 μL. The cuvettes were filled with the peptide water solutions and spectra were collected, using a wavelength from 600 nm. Biological activity of peptides was evaluated by their minimum concentration, which that may inhibit the growth of T. thermophilus bacteria culture. Biological activity of peptides was counted by using the following equation: (1) E=1−A (sample with peptide)/A (sample without peptide), where E is a biological activity of peptides, A is an optical absorption after 24 h incubation with and without peptide.
To construct a dose-effect curve and estimate the quantitative parameters of the curves, the statistical environment R and the drc package were used. The choice of model for describing the functional dependence was determined by several parameters: the logarithm of the maximum value of the likelihood function (logLik), the Akaike information criterion (IC), and the residual variance (Res var).
The algorithm for evaluating antimicrobial activity includes the study of this process and the dose–response relationship. The reaction of a biological object determines a quantitative assessment of the antimicrobial effect, depending not only on the concentration of the peptide, but also on the time of its action. Almost any impact begins with a certain threshold. An important final result of the experiment is the assessment of this threshold—the minimum inhibitory concentration (MIC) at which peptide influence is observed.

[2] = Transmission electron microscopy of peptide preparations; format: physicochemical; conditions: peptide alone, negative staining, TEM
Method: (§1) The presence of amyloid fibrils in the test samples was monitored by transmission electron microscopy (TEM). End-point solutions of peptides were collected and the samples were dissolved in the same solution to 0.2 mg/mL before studying with electron microscopy. A formvar-coated copper grid 400 mesh (Electron Microscopy Sciences, Hatfield, PA, USA) was placed on a 10 μL sample. After 5 min absorption, the grids with the preparation were negatively stained for 1.5–2.0 min with 1% (weight/volume) aqueous solution of uranyl acetate. The excess of the staining agent was removed with filter paper. The preparations were analyzed using a JEM-100C (Jeol, Tokyo, Japan) transmission electron microscope at the accelerating voltage of 80 kV. Images were recorded on the Kodak electron image film (SO-163) at nominal magnification of 40,000–60,000.

[3] = tested on: ribosomal S1 protein from T. thermophilus; assay: Electron microscopy, coaggregation of peptide with S1 protein
Method: as §1

[4] = Thioflavine T fluorescence assay of peptide aggregation; format: physicochemical; conditions: peptide alone, ThT 0.2 mM, 37 °C
Method: Fibrils growth was monitored by thioflavine T (ThT) (Sigma-Aldrich, St. Louis, MO, USA) fluorescence. The kinetics of aggregation of peptides was studied using the method of fluorescence spectroscopy. Each kinetics graph was plotted based on the average of several results measured at different time intervals. To facilitate dissolution, all the samples of peptides were pre-dissolved in 100% DMSO, then buffers 50 mM Tris-HCl, pH 7.5, 150 mM NaCl or 20% acetic acid pH 2.0, 150 mM NaCl were added (1% final concentration DMSO) and filtered through […] membranes to remove small aggregates. ThT is the most commonly used fluorescent dye for the following amyloid formation semi-quantitatively in vitro. Free ThT has excitation and emission maxima at ∼350 and ∼450 nm, respectively (after binding to fibrils, the excitation and emission λmax change to ∼450 and ∼482–485 nm, respectively). A stock solution of ThT was prepared at a concentration of 20 mM in 50 mM Tris-HCl, pH 7.5, 150 mM NaCl or 20% acetic acid pH 2.0, 150 mM NaCl, respectively and stored at 4 °C protected from light. The final concentration of ThT was 0.2 mM, and each peptide was 0.2 mM. ThT was present in the sample during the fibril formation reaction. Measurements of ThT fluorescence were performed on a Cary Eclipse fluorescence spectrophotometer (Varian, Mulgrave, Australia) in quartz cells 3 × 3 mm at 37 °C.

T. thermophilus cells = assay: Electron microscopy of intact and peptide-treated T. thermophilus cells; format: cell-based
Method: Along with the spectrophotometric method for determining the antimicrobial activity of peptides, the viability of cells was evaluated using electron microscopy. […] At the given peptide concentration, cells with a typical morphology and flagella were often found. Many protein aggregates were also observed. The absence of an antimicrobial effect with an increase in the concentration of the peptide to 1000 μg/mL, consistent with the spectrophotometry data of the antimicrobial activity of peptides (Figure 3).
as §1

**Q.** For CC[C@H](C)[C@H](NC(=O)[C@H](CCC(=O)O)NC(=O)[C@@H](NC(=O)[C@H](Cc1ccccc1)NC(=O)[C@@H](NC(=O)CNC(=O)[C@H](Cc1ccccc1)NC(=O)[C@H](CC(=O)O)NC(=O)[C@@H](NC(=O)[C@@H](NC(=O)CNC(=O)CN(C)C(=O)CNC(=O)CNC(=O)[C@H](CCCNC(=N)N)NC(=O)[C@H](CCCNC(=N)N)NC(=O)[C@H](CCCNC(=N)N)NC(=O)[C@H](CCC(N)=O)NC(=O)[C@H](CCCNC(=N)N)NC(=O)[C@H](CCCNC(=N)N)NC(=O)[C@H](CCCCN)NC(=O)[C@H](CCCCN)NC(=O)[C@@H](N)CCCNC(=N)N)C(C)C)[C@@H](C)O)C(C)C)C(C)C)C(=O)O [R23I] (HELM PEPTIDE1{R.K.K.R.R.Q.R.R.R.G.G.[Sar].G.V.T.D.F.G.V.F.V.E.I}$$$$V2.0; N-terminus and C-terminus assumed), which “change of optical density of T. thermophilus culture over time” value ([1]; 50 μg/mL in medium, OD 600 nm versus sampling time, DMSO control reached 0.8) is on record?
**A.** no increase in the optical density

**Q.** What about the “minimal inhibitory concentration (MIC)” value ([1]; T. thermophilus culture, optical absorption at 600 nm after 24 h incubation, 5 repeats for R23I, 2 for R23T and V10I) of the same compound?
**A.** 50 µg/mL (≈ 18.6 µM)

**Q.** And the “concentration at which a pronounced antibacterial effect is observed (no activity below)” value ([1]; T. thermophilus culture, additional concentrations 0.5-250 μg/mL tested)?
**A.** 40 µg/mL

**Q.** What about the “concentration leading to formation of aggregates in solution and increase in optical density” value ([1]; culture medium, OD 600 nm) of the same compound?
**A.** ≥ 500 µg/mL

**Q.** What about the “aggregate/fibril morphology according to electron microscopy” value [2] of the same compound?
**A.** aggregates of different sizes and complexes of aggregates are present

**Q.** What about the “morphology of peptide/S1 protein mixture by electron microscopy” value ([3]; peptide:S1 protein ratio 1:1) of the same compound?
**A.** both the protein aggregates and fibrils were observed

**Q.** What about the “morphology of peptide/S1 protein mixture by electron microscopy” value ([3]; peptide:S1 protein ratio 5:1 (S1:peptide = 1:5)) of the same compound?
**A.** both the protein aggregates and fibrils were observed

**Q.** What about the “amyloids in peptide preparation according to ThT fluorescence” value [4] of the same compound?
**A.** absence of R23I amyloids

**Q.** What about the “cell morphology by electron microscopy” value (T. thermophilus cells; peptide 50 μg/mL) of the same compound?
**A.** whole cells were practically absent

**Q.** What about the “cell morphology by electron microscopy” value (T. thermophilus cells; peptide 100 μg/mL) of the same compound?
**A.** the number of cells decreased

**Q.** What about the “cell morphology by electron microscopy” value (T. thermophilus cells; peptide 1000 μg/mL) of the same compound?
**A.** did not lead to the morphological changes compared with the control
